# Data as given in patent US8178658B2 (Dow AgroSciences, LLC, priority 2008, dated 2012).
# Tests used:
# [1] = test system: beet armyworm (BAW; Spodoptera exigua: Lepidoptera); assay: 96-well microtiter plate-based high throughput (HTS) diet bioassay on beet armyworm (BAW HTS); assay type: in vivo; conditions: BAW eggs, 12 μg test compound per well, mortality at 6 d post-treatment, mortality class
# Protocol: (§1) Bioassays on beet armyworm (BAW; Spodoptera exigua: Lepidoptera) were conducted using either a 96-well microtiter plate-based high throughput (HTS) bioassay or a 128-well diet tray assay. The HTS assay is a based on a modification of Lewer et al. J. Nat. Prod. 2006, 69, 1506. BAW eggs of were placed on top of artificial diet (100 μl) in each well of 96-well microtiter plate. The diet was pretreated with test compounds (12 μg dissolved in 30 μL of DMSO-acetone-water mixture) layered on top of the diet using a liquid handling system and then allowed to dry for several hours. Infested plates were then covered with a layer of sterile cotton batting and the plate lid, and then held in the dark at 29° C. Mortality was recoded at 6 d post-treatment. Each plate had six replicates. The percent mortality was calculated from the average of the six replicates. In the case of the 128-well diet assay, three to five second instar BAW larvae were placed in each well (3 mL) of the diet tray that had been previously filled with 1 mL of artificial diet to which 50 μg/cm^2 of the test compound (dissolved in 50 μL of 90:10 acetone-water mixture) had been applied (to each of eight wells) and then allowed to dry. Trays were covered with a clear self-adhesive cover, and held at 25° C., 14:10 light-dark for six days. Percent mortality was recorded for the larvae in each well; activity in the eight wells was then averaged. In Table 7, under the BAW HTS or BAW 50 heading, an “A” means that the compound was tested and at least 50 percent mortality was observed whereas, “B” means that either (1) the compound was tested and less than 50 percent mortality was observed or (2) the compound was not tested.
# [2] = test system: beet armyworm (BAW; Spodoptera exigua: Lepidoptera); assay: 128-well diet tray assay on beet armyworm (BAW 50); assay type: in vivo; conditions: 128-well diet tray assay, second instar BAW larvae, mortality class
# Protocol: as §1
# [3] = 96-well microtiter plate HTS diet assay
# [4] = 50 μg/cm^2 of test compound on diet
SMILES,BAW HTS ([1]; 96-well HTS diet bioassay),"BAW HTS [1, 3]","BAW 50 ug/cm2 [2, 4]","pest or weed control at 12 µg/well, 12 µg/well ([1]; Spodoptera exigua, 144 h, 96-well microtiter plate HTS diet assay, read-out: BAW HTS) [%]",BAW 50 ug/cm2 ([2]; 50 μg/cm2 of test compound on diet),"pest or weed control at 50 µg/cm2, 50 µg/cm2 ([2]; Spodoptera exigua, 144 h, 50 μg/cm^2 of test compound on diet, read-out: BAW 50 ug/cm2) [%]"
COC1C(C)OC(ON=Cc2ccc(C3=NN(c4ccc(OC(F)(F)F)cc4)CC3)cc2)C(OC)C1OC (stereo not shown) [Compound 15],B (either (1) the compound was tested and less than 50 percent mortality was observed or (2) the compound was not tested),B (either (1) the compound was tested and less than 50 percent mortality was observed or (2) the compound was not tested),A (the compound was tested and at least 50 percent mortality was observed),–,–,–
COC1C(C)OC(ON=Cc2ccc(-n3cnc(-c4ccc(Br)cc4)c3)cc2)C(OC)C1OC (stereo not shown) [Compound 16],A (the compound was tested and at least 50 percent mortality was observed),A (the compound was tested and at least 50 percent mortality was observed),B (either (1) the compound was tested and less than 50 percent mortality was observed or (2) the compound was not tested),–,–,–
COC1C(C)OC(ON=Cc2ccc(-c3cn(-c4cccc(Cl)c4C#N)cn3)cc2)C(OC)C1OC (stereo not shown) [Compound 17],A (the compound was tested and at least 50 percent mortality was observed),A (the compound was tested and at least 50 percent mortality was observed),B (either (1) the compound was tested and less than 50 percent mortality was observed or (2) the compound was not tested),–,–,–
COC1C(C)OC(ON=Cc2ccccc2-c2cn(-c3ccc(OC(F)(F)F)cc3)cn2)C(OC)C1OC (stereo not shown) [Compound 19],B (either (1) the compound was tested and less than 50 percent mortality was observed or (2) the compound was not tested),B (either (1) the compound was tested and less than 50 percent mortality was observed or (2) the compound was not tested),B (either (1) the compound was tested and less than 50 percent mortality was observed or (2) the compound was not tested),–,–,–
COC1C(C)OC(ON=Cc2c(F)ccc(-c3cn(-c4ccc(OC(F)(F)F)cc4)cn3)c2F)C(OC)C1OC (stereo not shown) [Compound 21],A (the compound was tested and at least 50 percent mortality was observed),A (the compound was tested and at least 50 percent mortality was observed),B (either (1) the compound was tested and less than 50 percent mortality was observed or (2) the compound was not tested),–,–,–
COC1C(C)OC(ON=Cc2ccc(-c3cn(-c4cccc(F)n4)cn3)cc2)C(OC)C1OC (stereo not shown) [Compound 22],B (either (1) the compound was tested and less than 50 percent mortality was observed or (2) the compound was not tested),B (either (1) the compound was tested and less than 50 percent mortality was observed or (2) the compound was not tested),B (either (1) the compound was tested and less than 50 percent mortality was observed or (2) the compound was not tested),–,–,–
COC1C(C)OC(ON=Cc2ccc(-c3cn(-c4cc(I)ccn4)cn3)cc2)C(OC)C1OC (stereo not shown) [Compound 23],B (either (1) the compound was tested and less than 50 percent mortality was observed or (2) the compound was not tested),B (either (1) the compound was tested and less than 50 percent mortality was observed or (2) the compound was not tested),B (either (1) the compound was tested and less than 50 percent mortality was observed or (2) the compound was not tested),–,–,–
COC1C(C)OC(ON=Cc2ccc(-c3cn(-c4cc(F)cc(F)c4)cn3)cc2)C(OC)C1OC (stereo not shown) [Compound 24],A (the compound was tested and at least 50 percent mortality was observed),A (the compound was tested and at least 50 percent mortality was observed),B (either (1) the compound was tested and less than 50 percent mortality was observed or (2) the compound was not tested),–,–,–
COc1ccc(-c2cn(-c3ccc(OC(F)(F)F)cc3)cn2)cc1C=NOC1OC(C)C(OC)C(OC)C1OC (stereo not shown) [Compound 25],B (either (1) the compound was tested and less than 50 percent mortality was observed or (2) the compound was not tested),B (either (1) the compound was tested and less than 50 percent mortality was observed or (2) the compound was not tested),B (either (1) the compound was tested and less than 50 percent mortality was observed or (2) the compound was not tested),–,–,–
"CO[C@@H]1[C@@H](OC)[C@H](C)O[C@@H](O/N=C/c2ccc(-c3cn(-c4ccc(OC(F)(F)F)cc4)cn3)cc2)[C@@H]1OC [Compound 26, 4-[1-(4-Trifluoromethoxyphenyl)-1H-imidazol-4-yl]-benzaldehyde O-((2S,3R,4R,5S,6S)-3,4,5-trimethoxy-6-methyl-tetrahydropyran-2-yl)-oxime]",A (the compound was tested and at least 50 percent mortality was observed),–,–,> 50,A (the compound was tested and at least 50 percent mortality was observed),> 50
CCCc1ccc(-n2cnc(-c3ccc(C=NOC4OC(C)C(OC)C(OC)C4OC)cc3)c2)cc1 (stereo not shown) [Compound 27],A (the compound was tested and at least 50 percent mortality was observed),A (the compound was tested and at least 50 percent mortality was observed),A (the compound was tested and at least 50 percent mortality was observed),–,–,–
CCCc1ccc(-n2cnc(-c3ccc(/C=N/O[C@@H]4O[C@@H](C)[C@H](OC)[C@@H](OCC)[C@H]4OC)cc3)c2)cc1 [Compound 29],B (either (1) the compound was tested and less than 50 percent mortality was observed or (2) the compound was not tested),B (either (1) the compound was tested and less than 50 percent mortality was observed or (2) the compound was not tested),A (the compound was tested and at least 50 percent mortality was observed),–,–,–
COC1C(C)OC(ON=Cc2ccc(-c3cn(-c4ccc(OC(F)(F)F)cc4)cn3)cc2)C(OC)C1OC (stereo not shown) [Compound 30],A (the compound was tested and at least 50 percent mortality was observed),A (the compound was tested and at least 50 percent mortality was observed),A (the compound was tested and at least 50 percent mortality was observed),–,–,–
COC1C(C)OC(ON=Cc2ccc(-c3cn(-c4ccc(C(F)(F)F)cn4)cn3)cc2)C(OC)C1OC (stereo not shown) [Compound 32],A (the compound was tested and at least 50 percent mortality was observed),A (the compound was tested and at least 50 percent mortality was observed),A (the compound was tested and at least 50 percent mortality was observed),–,–,–
CCOC1C(C)OC(ON=Cc2ccc(-c3cn(-c4ccc(C(F)(F)F)cn4)cn3)cc2)C(OCC)C1OCC (stereo not shown) [Compound 33],A (the compound was tested and at least 50 percent mortality was observed),A (the compound was tested and at least 50 percent mortality was observed),A (the compound was tested and at least 50 percent mortality was observed),–,–,–
COC1C(C)OC(ON=Cc2ccc(-c3cn(-c4cc(Br)ccc4Cl)cn3)cc2)C(OC)C1OC (stereo not shown) [Compound 34],B (either (1) the compound was tested and less than 50 percent mortality was observed or (2) the compound was not tested),B (either (1) the compound was tested and less than 50 percent mortality was observed or (2) the compound was not tested),A (the compound was tested and at least 50 percent mortality was observed),–,–,–
COc1ccc(C=NOC2OC(C)C(OC)C(OC)C2OC)cc1-c1cn(-c2ccc(OC(F)(F)F)cc2)cn1 (stereo not shown) [Compound 35],B (either (1) the compound was tested and less than 50 percent mortality was observed or (2) the compound was not tested),B (either (1) the compound was tested and less than 50 percent mortality was observed or (2) the compound was not tested),A (the compound was tested and at least 50 percent mortality was observed),–,–,–
COC1C(C)OC(ON=Cc2ccc(-c3cn(-c4ccc(OC(F)(F)F)cc4)cn3)cc2F)C(OC)C1OC (stereo not shown) [Compound 36],B (either (1) the compound was tested and less than 50 percent mortality was observed or (2) the compound was not tested),B (either (1) the compound was tested and less than 50 percent mortality was observed or (2) the compound was not tested),A (the compound was tested and at least 50 percent mortality was observed),–,–,–
COC1C(C)OC(ON=Cc2ccc(-c3cn(-c4ccc(OCC(F)(F)F)cc4)cn3)cc2)C(OC)C1OC (stereo not shown) [Compound 37],B (either (1) the compound was tested and less than 50 percent mortality was observed or (2) the compound was not tested),B (either (1) the compound was tested and less than 50 percent mortality was observed or (2) the compound was not tested),A (the compound was tested and at least 50 percent mortality was observed),–,–,–
